According to US20180207294A1, “NON-ALCOHOLIC FATTY LIVER REGULATING FACTOR 14-3-3 PROTEIN” (Korea University Research and Business Foundation, priority 2015, published 2018):

Columns and labels:
Type in all cases: cell-based
[1] = system: primary mouse hepatocytes; assay: PPARγ2 target gene mRNA (real-time PCR) with 14-3-3 overexpression and oleic acid, primary mouse hepatocytes; conditions: 14-3-3 overexpression, oleic acid, FIG. 7B
Description: HepG2 cells were seeded in a 6-well plate at a density of 4×10^5 cells per each well, and then transfected with GFP-14-3-3β DNA (4 μg) or GFP-14-3-3γ DNA (4 μg) using an E-fection plus reagent (Lugen). A ratio of DNA to the E-fection plus reagent was 1:2, and this method was performed according to a manufacturer's manual. After transfection, the cells were treated with 200 μM of oleic acid (OA) for 72 hours, and for mRNA extraction, the corresponding cells were lysed with 1 ml/well of TRIzol (Invitrogen), 200 μl of chloroform was added thereto and mixed well, the resultant cells were maintained at room temperature for 5 minutes and then centrifuged at 12,000×g and 4° C. for 15 minutes, the obtained supernatant was mixed with 500 μl of isopropanol and then put on ice for 10 minutes, and the resulting supernatant was centrifuged at 12,000×g and 4° C. for 15 minutes to remove a supernatant, and then pellets were dissolved with tertiary distilled water treated with diethyl pyrocarbonate (DEPC). 2 μg of mRNA was synthesized into cDNA using a Superscript First Strand cDNA Synthesis Kit (Bioneer, Daejeon, South Korea) and the synthesized cDNA as a template was amplified through polymerase chain reaction (PCR) using primers specific to PPARγ2 (SEQ ID NOS: 1 and 2), 14-3-3β (SEQ ID NOS: 3 and 4), 14-3-3γ (SEQ ID NOS: 5 and 6), SREBP-1c, FAT/CD36, and β-actin of humans, and was amplified through real-time PCR using primers specific to SREBP-1c, FAT/CD36, and GAPDH of mice. β-actin and GAPDH were used as controls to see whether mRNAs of the respective cells were compared in the same amount.

[2] = system: primary mouse hepatocytes; assay: Oil Red-O lipid accumulation, primary mouse hepatocytes; conditions: 14-3-3 overexpression, 200 μM oleic acid 72 hours, FIG. 9B
Description: HepG2 cells and primary mouse hepatocytes were separately seeded in a 6-well plate at a density of 4×10^5 cells per each well, and then transfected with GFP-14-3-3β DNA (1 μg) or GFP-14-3-3γ DNA (1 μg) and si-14-3-3β (10 μM, Santa Cruz) or si-14-3-3γ (10 μM, Santa Cruz) using an E-fection plus reagent (Lugen). A ratio of DNA to the E-fection plus reagent was 1:2, and this method was performed according to a manufacturer's manual. […] The stained cells were bleached with 1 ml of isopropanol and analyzed at a wavelength of 550 nm using a DU530 spectrophotometer (Beckman Instruments, Palo Alto, Calif.).

FAT/CD36 promoter = assay: Chromatin immunoprecipitation (ChIP) of PPARγ2 on FAT/CD36 promoter, HepG2 cells; conditions: overexpression of 14-3-3β / 14-3-3γ, FIG. 7C upper side
Description: In addition, for chromatin immunoprecipitation (ChIP), HepG2 cells were seeded in a 100 mm plate at a density of 4×10^6 cells per each well, and then transfected with Flag-PPARγ2 DNA (4 μg), mGST-14-3-3β DNA (4 μg) or mGST-14-3-3γ DNA (4 μg), and si-14-3-3β (20 μM, Santa Cruz) or si-14-3-3γ (20 μM, Santa Cruz) using an E-fection plus reagent (Lugen). A ratio of DNA to the E-fection plus reagent was 1:2, and this method was performed according to a manufacturer's manual. The corresponding cells were treated with 0.75% formaldehyde at room temperature for 15 minutes, glycine was added thereto, and the resulting cells were scraped into ice-cold PBS and centrifuged at 1,000×g and 4° C. for 3 minutes to remove a supernatant, pellets were dissolved with 400 μl of FA lysis buffer (50 mM HEPES, 150 mM NaCl, 2 mM EDTA pH8.0, 1% Triton-X100, 0.1% NaDeoxycholate), and then lysed using a sonicator twice for 10 minutes at a high voltage under the following condition: lysis for […] and resting for 30 seconds. […]
In addition, the binding of PPARγ2 and a binding strength thereof according to the expression of 14-3-3β and 14-3-3γ were evaluated by ChIP assay using a PPAR response element (PPRE) known as a binding site of PPARγ2 present in the FAT/CD36 promoter. […]

[3] = system: primary mouse hepatocytes; assay: Triglyceride colorimetric assay, primary mouse hepatocytes; conditions: primary mouse hepatocytes; 14-3-3 overexpression; 200 μM oleic acid 72 hours; FIG. 10A
Description: (§1) A triglyceride (neutral fat) is a type of fatty acid and is used as an index of a fat content. A biochemical lipid test was carried out by measuring an amount of triglycerides. HepG2 cells and primary mouse hepatocytes were separately seeded in a 6-well plate at a density of 4×10^5 cells per each well, and then transfected with GFP-14-3-3β DNA (1 μg) or GFP-14-3-3γ DNA (1 μg) and si-14-3-3β (10 μM, Santa Cruz) or si-14-3-3γ (10 μM, Santa Cruz) using an E-fection plus reagent (Lugen). A ratio of DNA to the E-fection plus reagent was 1:2, and this method was performed according to a manufacturer's manual. After transfection, the cells were treated with 200 μM of oleic acid (OA) for 72 hours, and the amount of triglycerides was measured using a triglyceride colorimetric assay kit (Cayman Chemical). The corresponding cells were washed with ice-cold PBS and then scraped using a standard diluent assay reagent, the scrapping process was repeated using a sonicator 20 times to lyse the cells, and the lysed cells were reacted with an enzyme buffer solution for 15 minutes, followed by measurement using an ELISA reader (Bio-Rad Laboratories, Inc) at a wavelength of 550 nm.

HepG2 cells = assay: Triglyceride colorimetric assay, HepG2 cells; conditions: 14-3-3 overexpression, 200 μM oleic acid 72 hours, FIG. 10A
Description: as §1

| Substance | mRNA expression of FAT/CD36 [1] | mRNA expression of SREBP-1c [1] | lipid accumulation by oleic acid (Oil Red-O) [2] | binding of PPARγ2 to the FAT/CD36 promoter (ChIP) (FAT/CD36 promoter) | triglyceride accumulation [3] | triglyceride accumulation (HepG2 cells) |
| --- | --- | --- | --- | --- | --- | --- |
| 14-3-3γ: 14-3-3 isoform protein, overexpressed by DNA transfection; regulating factor that decreases transcriptional activity of PPARγ2 | reduced | reduced | reduced lipid accumulation | inhibited | reduced triglyceride accumulation | reduced triglyceride accumulation |
| 14-3-3β: 14-3-3 isoform protein, overexpressed by DNA transfection; regulating factor that increases transcriptional activity of PPARγ2 | further increased | further increased | increased lipid accumulation | increased | further increased | further increased |
